According to a melting point compilation (Tetko et al.; mined from patent text by program, amines drawn as free bases though some values may be those of a salt):
Residues, ends and D or L forms follow the SMILES beside them. *: point of attachment. Piv = CC(C)(C)C(=O)*

melting point | Compound
244 to 245 °C | Oc1ccc2c(ccc3ccccc32)c1-c1c(O)ccc2c1ccc1ccccc12
163 to 165 °C | O=C(Nc1ccc(Cl)cn1)c1cc(Cl)ccc1NCC1CCN(C(=O)c2cccs2)CC1
180 to 181 °C | Cc1nc(-c2ccc(C(F)(F)F)cc2)sc1CN(C)c1ccc(OCC(=O)O)c(C(F)(F)F)c1
57 °C | OCCc1ccc(N2CCOCC2)cc1
198 °C | CN1CCN(C[C@H]2C(=O)Nc3ccccc3S[C@H]2c2ccccc2)CC1 (relative stereo)
139 to 140 °C | CC(=O)NCc1ccc(CN2CCN(c3ccc(F)cc3N)CC2)cc1
102 to 103 °C | O=C1N[C@H](C(=O)NCCO[N+](=O)[O-])CO1
123 to 125 °C | CN1CCCCCCC1=NC(=S)Nc1ccccc1
271 °C | Cc1ccc(N2C(=O)C(O)=C(C(=O)c3cccc(Cl)c3)C2c2ccc(C(C)C)cc2)nn1 (stereo not drawn)
225 to 228 °C | NCc1ccc(S(=O)(=O)c2ccc(S(N)(=O)=O)s2)cc1
92 to 96 °C | C[N+]1([O-])CCC(=C(c2ccsc2)c2ccsc2)CC1 (stereo not drawn)
145 to 148 °C | NCC1CCCC(CNc2ncc3ncnc(Nc4ccc(F)c(Cl)c4)c3n2)C1 (stereo not drawn)
170 to 173 °C | Cc1c[nH]c(=O)n(-c2cc(C(=O)OC(C)C)c(Cl)cc2F)c1=O
123 to 124 °C | CN(C)CCCOc1ccc(Nc2nccc(-c3ccncc3)n2)cc1
118 to 120 °C | O=C(O)CCc1ccccc1OCCC(c1ccccc1)(c1ccccc1)c1ccccc1
170 °C | CCCCc1nc2c(n1Cc1ccc(-c3ccccc3S(=O)(=O)NC(=O)NCCC)cc1)C(=CC(=O)OCC)CCS2
157 to 159 °C | COc1ccc(S(=O)(=O)N2CCc3cccc(-c4ccc(C#N)cc4)c32)cc1
94 to 97 °C | CCOC(=O)c1[nH]cc(-c2ccc(F)cc2)c1C(C)C
175 to 177 °C | CCOC(=O)C1CCCN(C(=O)C2CCC(Nc3nccc(-n4ccc5c(OCCCS(C)(=O)=O)cccc54)n3)CC2)C1 (stereo not drawn)
241 to 242 °C | NS(=O)(=O)c1c(Cl)ccc(NC(=O)Nc2cccc(Cl)c2Cl)c1O
120 to 122 °C | c1cnc2ccc(Cn3nnc4ccc(-c5ccc6[nH]ccc6c5)nc43)cc2c1
210 °C | CN(C=O)C1(C(=O)O)CC1
203 to 205 °C | Oc1ccc(-c2cc3cc(Br)cc(Br)c3o2)cc1
272 to 274 °C | Cc1ncc2cc(-c3c(Cl)cccc3Br)c(N)nc2n1

melting point | Compound
155 to 157 °C | CNC(=N)Nc1nc(-c2ccc(OC)cc2)c(-c2ccc(OC)cc2)s1
161 to 163 °C | CC(=O)C1CCC2C3CCC4=CC(=O)C=CC4(C)C3=CCC12C (stereo not drawn)
121 to 123 °C | CC(C)c1[nH]cnc1CO
168 to 169 °C | OCCOCCn1ccc2ncnc(Nc3ccc(OCc4cccc(F)c4)c(Cl)c3)c21
141 to 142 °C | O=C(O)CCOCCCc1cccc(-c2nc(=O)c3ccccc3s2)n1
127 to 128 °C | Cc1cc(Cl)cc(C(=O)NCC2CC2)c1N
141 to 143 °C | CC(C)C(NS(=O)(=O)c1ccc(-c2cccc(CNC(=O)c3nc4ccccc4c(=O)[nH]3)c2)cc1)C(=O)O (stereo not drawn)
58 to 61 °C | CCN(CC)CC(O)CONC(=O)NC(C)(C)C (stereo not drawn)
228 to 230 °C | COc1ccc(N2CCOCC2)c2sc(NC(=O)c3ccnc(CN(C)C(C)=O)c3)nc12
195 to 197 °C | CN(c1cccc2cc(C(=O)NCC3(SCc4ccccc4)CCN(C(=O)OC(C)(C)C)CC3)[nH]c12)S(=O)(=O)c1cccs1
118 to 120 °C | CCCOc1c(OC)cc(Cl)c2c1CN1CCc3cc(OC)c(OCc4ccccc4)cc3C1C2 (stereo not drawn)
119 to 120 °C | Nc1cc(F)c2c(c1)Cc1cc(F)ccc1-2
104 to 106 °C | CCC(Oc1cc(Cl)cc(Cl)c1)C(=O)NC(C)(C)C#CCCO (stereo not drawn)
191 to 192 °C | C=CCn1c(=O)c2[nH]c(C34CC5CC(CC3C5)C4)nc2n(CCC)c1=O
250 to 253 °C | c1ccc2c(c1)ncn2CN1CCN(Cn2cnc3ccccc32)CC1
69 to 73 °C | O=C(c1ccc(Cl)cc1)c1c(Cl)cc(CBr)cc1Cl
213 to 215 °C | O=C(O)Cc1c(C(=O)c2cccc(O)c2)[nH]c2cc(Cl)ccc12
249 °C | CC(C)(C)C(=O)NC1CCC(c2cc(Nc3cccc(C(F)(F)F)c3)n[nH]2)C1 (stereo not drawn)
188 to 189 °C | O=C1NC(=O)C(Cc2ccc(OCc3coc(-c4ccccc4)n3)cc2)S1 (stereo not drawn)
188 to 189 °C | C[C@@H](n1cnc2ccc(Cl)cc2c1=O)[C@](O)(Cn1cncn1)c1ccc(F)cc1F
274 to 279 °C | CSC(=S)NN=Cc1c[nH]c(C)n1
181 to 182 °C | CCc1nc2c(N)nc3ccccc3c2n1CCCCNS(=O)(=O)c1ccccc1
106 °C | COC(=O)COC(=O)C(c1ccccc1)N1CCN(c2ccc(NC(=O)c3ccccc3-c3ccc(C(F)(F)F)cc3)cc2)CC1 (stereo not drawn)
208 to 211 °C | Nc1ncc(-c2cccc(Cl)c2Cl)c(N)n1

melting point | Compound
186 to 187 °C | NS(=O)(=O)c1ccc(-c2c(-c3ccccc3)noc2Cl)cc1
166 to 168 °C | COc1cc(Nc2c(C#N)cnc3cc(F)c(OCCN4CCOCC4)cc23)c(Cl)cc1Cl
55 to 57 °C | CC(C)C1=CC(C(C)C)(S(=O)(=O)n2c(C3(O)C=CC(=O)C=C3)cc3ccccc32)CC(C(C)C)=C1 (stereo not drawn)
154 °C | CC(C)n1cnc2c(Nc3ccc(F)cc3)nc(Cl)nc21
123 to 126 °C | CC(C)Oc1cc(CCCOc2cc(CCC(=O)O)n(Cc3ccccc3)n2)n(Cc2ccc(Cl)cc2Cl)n1
194 °C | COC(=O)C1(Cc2ccc(Br)cc2)CC(=O)CN1C(=O)Nc1cc(Cl)cc(Cl)c1 (stereo not drawn)
119 to 120 °C | Nc1ccc(C(=O)OC2CCN(Cc3ccccc3)CC2)cc1
95 to 96 °C | CCOc1cc(C=CC(C)=O)ccc1OC
140 to 145 °C | Cc1cc(SC2=C(O)CC(CCc3ccc(O)cc3)(CCc3ccc(O)cc3)OC2=O)c(C(C)(C)C)cc1N
94 to 96 °C | CCNC(=O)[C@@H]1CCCN1C(=O)[C@H](C)NC(=O)C(C)(C)C (Piv-Ala-Pro-NHEt)
207 to 208 °C | Nc1cc2c(c(C(=O)O)c1)NCCC2
> 300 °C | O=C(O)CN1C(=O)C(=Cc2ccccc2C(=O)O)SC1=S
65 to 67 °C | CCN(CC)CCCCC(=O)c1cccc2cc3c(C(=O)CCCCN(CC)CC)cccc3cc12
159 to 160 °C | CCCc1c(C)c(NC(=O)CC(C)(C)C)c(C)c2c1SCC2c1ccc(C(C)C)cc1 (stereo not drawn)
155 to 156 °C | COc1ccc(-n2c(-c3ccc(S(N)(=O)=O)cc3)cc(C)c2Cl)cc1
91 to 93 °C | C[C@H](CNC(=O)COc1cc(C(F)(F)F)c2c(-c3ccccc3)nn(C)c2n1)c1ccccc1
131 to 133 °C | CCCCS(=O)(=O)Nc1ccccc1Oc1ccc2ncccc2c1
96 to 100 °C | OC(Cn1cncn1)(Cn1cnc(-c2ccc(F)cc2)n1)c1ccc(C(F)(F)F)cc1F (stereo not drawn)
86 to 88 °C | COc1nc(OC)c(C(C)C)c(C(=O)c2cc(C)cc(C(OC)OC)c2)n1
111 to 112 °C | O=C(O)Cc1ccc2c(c1)CCc1ccccc1S2
208 to 210 °C | O=C1CCCc2c1c1cccc3c1n2CC3
105 °C | COCCOc1ccc2c(c1)n(C1CCCCC1)c(=O)n2S(=O)(=O)c1ccc(C(=O)O)cc1OC
161 to 162 °C | CC(=O)OC1(C)C=CC2=NC(c3cc(C)c(O)c(C)c3)=CC2=C1 (stereo not drawn)
293 to 295 °C | O=c1[nH]c2cc(Cl)ccc2c(O)c1-c1cccc(OCc2ccccc2)c1

melting point | Compound
194 °C | COC(=O)C1=C(C)NN=C(c2cccs2)C1c1ccccc1 (stereo not drawn)
167 to 168 °C | COc1cccc(CC(=O)O)c1OCCCc1cn(-c2ncc(C#N)cn2)nc1C(C)C
108 to 111 °C | Cc1ccc(-c2cn(C)cc(-c3ccccc3)c2=O)cc1C
125 to 127 °C | COc1ccc(NC=O)c(C=O)c1
196 to 198 °C | O=C(Nc1ccc(C(F)(F)F)cc1)Nc1cccc(S(=O)(=O)Nc2ccc(Cl)cc2)c1
183 to 185 °C | COC1=CC(=O)CC(NC(=O)Nc2ccccc2)C1 (stereo not drawn)
202 to 204 °C | N=c1nc(N)c2ncn(Cc3ccccc3)c2c(N)n1
39 to 40.6 °C | CCCCCCCCCCCCCCCCC(O)CN(C)CCO (stereo not drawn)
102 to 104 °C | CCOC(=O)Cc1ccc(S(=O)(=O)C2CC2)cc1
106 to 107 °C | O=C(O)c1ccccc1C(=O)c1c(-c2ccccc2)[nH]c2ccccc12
58 to 60 °C | CC(C)(C)OC(=O)NCCN1CC2CN(Cc3ccccc3)CC(C1)O2
170 °C | COc1cc(OC)nc(NC(=O)NS(=O)(=O)c2ccccc2OC(F)(F)F)n1
177 to 178 °C | Cc1nn(CC2CCCC2)c2nc(-c3ccncc3)nc(N)c12
95 to 101 °C | N#CCC=C1c2ccccc2C=Cc2ccccc21
201 to 202 °C | Cc1c(NC(=O)CC(C)(C)C)c2c(c3c1C(c1ccc(C(C)C)cc1)CO3)CCC2 (stereo not drawn)
140 to 141 °C | CCOc1nn(Cc2ccc(OCc3ccc4ccccc4n3)cc2)cc1CCC(=O)O
140 to 145 °C | CCS(=O)c1cc2c(cc1OC)CCn1c3c(c(Br)c1-2)CCCCN(C(C)(C)C)C3=O (stereo not drawn)
218 to 220 °C | Cc1nc(N2CCN(CC3CC3)C2=O)sc1C(=O)NCc1ncccn1
220 to 222 °C | CC(C)NC(=O)N[C@@H](Cc1ccccc1)[C@H](O)[C@H](O)[C@H](Cc1ccccc1)NC(=O)NC(C)C
126 to 128 °C | OCC1C=CC(n2c(Br)nc3cc(Cl)c(Cl)cc32)C1 (stereo not drawn)
169 to 171 °C | NC(=O)C(O)c1cc(F)cc2cccnc12 (stereo not drawn)

Compound | melting point
CN(C(=O)C1CCC1)c1cccc(-c2ccnc3c(C(=O)c4ccccc4)cnn23)c1 | 168 to 170 °C
O=C(c1ccc2ccccc2c1)P1(=O)Oc2ccccc2-c2ccccc21 (stereo not drawn) | 151 to 153 °C
CCN(CC)CCSc1nc2ccccc2c(=O)n1-c1ccccc1 | 84.8 to 86.8 °C
CC#CC1(O)CCC2C3CCC4=CC(=O)CCC4C3C(=CF)CC21C (stereo not drawn) | 148 °C
CSCC12CCC(O)C=C1CCC1C2CCC2(C)C(O)CCC12 (stereo not drawn) | 85 to 87 °C
